molecular target: T1, Haspin (h) (Homo sapiens, UniProt Q8TF76); test: radiometric kinase assay (KinaseProfiler, Eurofins), Haspin; type: biochemical; conditions: in vitro radiometric kinase assay, tested at 1 nM to 10 000 nM, no pre-incubation; read-out: inhibitory activities (IC50 values) Haspin
T1 construct: purchased Eurofins (KinaseProfiler)
T1 sequence (Q8TF76 1-798): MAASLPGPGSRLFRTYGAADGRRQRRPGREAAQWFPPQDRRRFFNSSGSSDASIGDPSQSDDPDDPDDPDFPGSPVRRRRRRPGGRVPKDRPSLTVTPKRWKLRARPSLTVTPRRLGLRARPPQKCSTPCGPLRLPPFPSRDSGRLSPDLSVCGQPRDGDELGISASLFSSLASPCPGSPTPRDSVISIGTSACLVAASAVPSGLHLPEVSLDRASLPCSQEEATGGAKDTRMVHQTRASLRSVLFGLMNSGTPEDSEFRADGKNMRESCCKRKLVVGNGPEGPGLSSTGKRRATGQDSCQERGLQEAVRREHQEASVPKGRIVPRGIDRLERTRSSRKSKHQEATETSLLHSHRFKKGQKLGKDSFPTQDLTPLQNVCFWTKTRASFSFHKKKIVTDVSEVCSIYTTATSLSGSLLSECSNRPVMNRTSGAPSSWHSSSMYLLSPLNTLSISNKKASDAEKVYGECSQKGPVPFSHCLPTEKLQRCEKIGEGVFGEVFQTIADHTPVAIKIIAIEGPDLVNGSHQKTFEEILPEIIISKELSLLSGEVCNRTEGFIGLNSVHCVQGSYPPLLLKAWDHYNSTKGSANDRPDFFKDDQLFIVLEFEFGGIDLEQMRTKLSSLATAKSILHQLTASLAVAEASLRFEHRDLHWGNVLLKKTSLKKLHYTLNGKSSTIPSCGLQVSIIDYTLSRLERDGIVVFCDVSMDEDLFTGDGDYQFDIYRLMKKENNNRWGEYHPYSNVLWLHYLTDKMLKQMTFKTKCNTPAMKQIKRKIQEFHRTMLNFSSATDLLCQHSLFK
Description: The compounds were profiled in the radiometric assays (KinaseProfiler, Eurofins).
Briefly, kinases were diluted in the buffer shown below prior to addition to the reaction mix: • CDKL3, TAF1L: 20 mM Tris/HCl pH 8.5, 0.2 mM EDTA, 0.1% β-mercaptoethanol, 0.01% Brij-35, 5% glycerol, 1 mg/ml BSA; • Haspin: 15 mM MOPS, 0.75 mM EDTA, 0.0075% Brij-35, 3.75% Glycerol, 150 mM NaCl, 0.1% β-mercaptoethanol, 1 mg/mLBSA; • CDKL4, CLK2, PIM1, TRB2: […], 1 mM EDTA, 0.01% Brij-35, 5% Glycerol, 0.1% β-mercaptoethanol, 1 mg/mL BSA.
All compounds were prepared to 50x final assay concentration in 100% DMSO. This working stock of the compound was added to the assay well as the first component in the reaction, followed by the remaining components as detailed in the general assay protocols below. There was no pre-incubation step between the compound and the kinase prior to initiation of the reaction.
Haspin (h) was incubated with 8 mM MOPS pH 7.0, 0.2 mM EDTA, 500 µM RARTLSFAEPG (SEQ ID NO. 3), 10 mM magnesium acetate and γ-^33P-ATP (specific activity and concentration as required). The reaction was initiated by the addition of the Mg/ATP mix. After incubation for 40 minutes at room temperature, the reaction was stopped by the addition of phosphoric acid to a concentration of 0.5%. An aliquot of the reaction was then spotted onto a filter and washed four times for 4 minutes in 0.425% phosphoric acid and once in methanol prior to drying and scintillation counting.
Kinase activity data were expressed as the percent remaining kinase activity in tested samples compared to the vehicle (DMSO) reactions. The compounds were tested at the following concentrations: 1 nM, 3 nM, 10 nM, 30 nM, 100 nM, 300 nM, 1000 nM, 3000 nM, and 10 000 nM; IC50 values and curve fits were then obtained.

Compound | IC50
c1cc(-c2csc3ccc(Nc4ccncn4)nc23)ccn1 [Preparative Example 114, 3-(pyridin-4-yl)-N-(pyrimidin-4-yl)thieno[3,2-b]pyridin-5-amine] | 500 to 3000 nM
Cn1ccc(-c2ccc3scc(-c4ccns4)c3n2)n1 [Preparative Example 119, 3-(isothiazol-5-yl)-5-(1-methyl-1H-pyrazol-3-yl)thieno[3,2-b]pyridine] | 100 to 499 nM
c1cnc(-c2ccc3scc(-c4ccncc4)c3n2)nc1 [Preparative Example 112, 3-(pyridin-4-yl)-5-(pyrimidin-2-yl)thieno[3,2-b]pyridine] | 3000 to 10000 nM
CN(c1ccc2scc(-c3ccncc3)c2n1)c1ccn(C)n1 [Preparative Example 100, N-methyl-N-(1-methyl-1H-pyrazol-3-yl)-3-(pyridin-4-yl)thieno[3,2-b]pyridin-5-amine] | 500 to 3000 nM
c1cc(-c2csc3ccc(Nc4cn[nH]c4)nc23)ccn1 [Preparative Example 98, N-(1H-pyrazol-4-yl)-3-(pyridin-4-yl)thieno[3,2-b]pyridin-5-amine] | 20 to 99 nM
Cn1cc(-c2ccc3scc(-c4ccnc(CNC(=O)OC(C)(C)C)c4)c3n2)cn1 | 3000 to 10000 nM
CC(C)(C)OC(=O)N1CCOC(COc2ccc3scc(-c4ccncc4)c3n2)C1 (centres unmarked) [Preparative Example 116, tert-butyl 2-(((3-(pyridin-4-yl)thieno[3,2-b]pyridin-5-yl)oxy)-methyl)morpholine-4-carboxylate] | 3000 to 10000 nM
Cn1nc(Nc2ccc3scc(-c4ccncc4)c3n2)cc1N [Preparative Example 104, 1-methyl-N3-(3-(pyridin-4-yl)thieno[3,2-b]pyridin-5-yl)-1H-pyrazole-3,5-diamine] | 500 to 3000 nM
c1ccc(Cn2ccc(-c3ccc4scc(-c5ccncc5)c4n3)n2)cc1 [Preparative Example 89, 5-(1-benzyl-1H-pyrazol-3-yl)-3-(pyridin-4-yl)thieno[3,2-b]pyridine] | 500 to 3000 nM
CCOC(=O)c1cc(Nc2ccc3scc(-c4ccncc4)c3n2)nn1C [Preparative Example 105, Ethyl 1-methyl-3-((3-(pyridin-4-yl)thieno[3,2-b]pyridin-5-yl)amino)-1H-pyrazole-5-carboxylate] | 3000 to 10000 nM
c1ccc(-c2ccc3scc(-c4ccncc4)c3n2)nc1 [Preparative Example 111, 5-(pyridin-2-yl)-3-(pyridin-4-yl)thieno[3,2-b]pyridine] | 100 to 499 nM
Cn1cc(C#N)c(Nc2ccc3scc(-c4ccns4)c3n2)n1 [Preparative Example 120, 3-((3-(isothiazol-5-yl)thieno[3,2-b]pyridin-5-yl)amino)-1-methyl-1H-pyrazole-4-carbonitrile] | 20 to 99 nM
Cc1cc(-c2ccn(C)n2)nc2c(-c3ccncc3)csc12 [Preparative Example 158, 7-methyl-5-(1-methyl-1H-pyrazol-3-yl)-3-(pyridin-4-yl)thieno[3,2-b]pyridine] | 100 to 499 nM
Cn1ccc(Sc2ccc3scc(-c4ccncc4)c3n2)n1 | 500 to 3000 nM
CC(C)(C)OC(=O)N1CCO[C@H](COc2ccc3scc(-c4ccncc4)c3n2)C1 [Preparative Example 117, tert-butyl (S)-2-(((3-(pyridin-4-yl)thieno[3,2-b]pyridin-5-yl)oxy)-methyl)morpholine-4-carboxylate] | 3000 to 10000 nM
COC(=O)c1cn(C)nc1Nc1ccc2scc(-c3ccnc(CN)c3)c2n1 [Preparative Example 128, Methyl 3-((3-(2-(aminomethyl)pyridin-4-yl)thieno[3,2-b]pyridin-5-yl)amino)-1-methyl-1H-pyrazole-4-carboxylate] | 3000 to 10000 nM
Cn1nc(Nc2ccc3scc(-c4ccncc4)c3n2)cc1NC(=O)OC(C)(C)C [Preparative Example 103, tert-butyl (1-methyl-3-((3-(pyridin-4-yl)thieno[3,2-b]pyridin-5-yl)-amino)-1H-pyrazol-5-yl)carbamate] | 3000 to 10000 nM
Cn1ccc(Oc2ccc3scc(-c4ccncc4)c3n2)n1 [Preparative Example 110, 5-((1-methyl-1H-pyrazol-3-yl)oxy)-3-(pyridin-4-yl)thieno[3,2-b]pyridine] | 100 to 499 nM

The next lines start with the values.

IC50 | Compound
500 to 3000 nM | c1cnc(-c2ccc3scc(-c4ccc5ncnn5c4)c3n2)nc1 [Preparative Example 130, 3-([1,2,4]triazolo[1,5-a]pyridin-6-yl)-5-(pyrimidin-2-yl)thieno[3,2-b]pyridine]
100 to 499 nM | Cn1cc(-c2ccc3scc(-c4cncnc4)c3n2)cn1 [Preparative Example 38, 5-(1-methyl-1H-pyrazol-4-yl)-3-(pyrimidin-5-yl)thieno[3,2-b]pyridine]
100 to 499 nM | c1ccc(-c2csc3ccc(-c4cn[nH]c4)nc23)cc1 [Preparative Example 121, 3-phenyl-5-(1H-pyrazol-4-yl)thieno[3,2-b]pyridine]
20 to 99 nM | Cn1cc(-c2ccc3scc(-c4ccc5nccn5c4)c3n2)cn1 [Preparative Example 57, 3-(imidazo[1,2-a]pyridin-6-yl)-5-(1-methyl-1H-pyrazol-4-yl)thieno[3,2-b]pyridine]
100 to 499 nM | Cn1cc(-c2ccc3scc(-c4ccc(F)cc4)c3n2)cn1 [Preparative Example 6, 3-(4-fluorophenyl)-5-(1-methyl-1H-pyrazol-4-yl)-thieno[3,2-b]pyridine]
20 to 99 nM | Cn1cc(-c2ccc3scc(-c4ccnc(N)c4)c3n2)cn1 [Preparative Example 25, 4-(5-(1-methyl-1H-pyrazol-4-yl)thieno[3,2-b]pyridin-3-yl)pyridin-2-amine]
20 to 99 nM | Cn1cc(-c2ccc3scc(-c4ccc5nccnc5c4)c3n2)cn1 [Preparative Example 49, 5-(1-methyl-1H-pyrazol-4-yl)-3-(quinoxalin-6-yl)thieno[3,2-b]pyridine]
500 to 3000 nM | CCn1ccc(-c2ccc3scc(-c4ccncc4)c3n2)n1 [Preparative Example 87, 5-(1-ethyl-1H-pyrazol-3-yl)-3-(pyridin-4-yl)thieno[3,2-b]pyridine]
100 to 499 nM | Cn1cc(-c2ccc3scc(-c4ccc5ncncc5c4)c3n2)cn1 [Preparative Example 47, 5-(1-methyl-1H-pyrazol-4-yl)-3-(quinazolin-6-yl)thieno[3,2-b]pyridine]
100 to 499 nM | Cn1cc(-c2ccc3scc(-c4cc5ncccn5n4)c3n2)cn1 [Preparative Example 61, 5-(1-methyl-1H-pyrazol-4-yl)-3-(pyrazolo[1,5-a]pyrimidin-2-yl)thieno[3,2-b]pyridine]
100 to 499 nM | Cn1ccc(-c2ccc3scc(-c4ccc5ncnn5c4)c3n2)n1 [Preparative Example 129, 3-([1,2,4]triazolo[1,5-a]pyridin-6-yl)-5-(1-methyl-1H-pyrazol-3-yl)thieno[3,2-b]pyridine]
100 to 499 nM | Cn1cc(-c2ccc3scc(-c4ccnc5[nH]ccc45)c3n2)cn1 [Preparative Example 45, 5-(1-methyl-1H-pyrazol-4-yl)-3-(1H-pyrrolo[2,3-b]pyridin-4-yl)thieno[3,2-b]pyridine]
100 to 499 nM | Cn1cc(-c2ccc3scc(-c4ccc(C#N)cc4)c3n2)cn1 [Preparative Example 4, 4-(5-(1-methyl-1H-pyrazol-4-yl)thieno[3.2-b]pyridin-3-yl)benzonitrile]
500 to 3000 nM | Cn1cc(-c2ccc3scc(-c4ccc(N5CCOCC5)nc4)c3n2)cn1 [Preparative Example 42, 4-(5-(5-(1-methyl-1H-pyrazol-4-yl)thieno[3,2-b]-pyridin-3-yl)pyridin-2-yl)morpholine]
